Measurements published in US10273240B2, “Cortistatin analogues, syntheses, and uses thereof” (President and Fellows of Harvard College, priority 2015, dated 2019).
Where two headings read alike, the source gives them in different places.

Assays:
[1] = target: T1, CDK8 module (Homo sapiens, UniProt P49336); assay: In vitro kinase assay, CDK8 module; assay type: biochemical
T1 construct: made in house

[2] = target: T2, CDK7 (TFIIH) (Homo sapiens, UniProt P50613); assay: In vitro kinase assay, CDK7 (TFIIH); assay type: biochemical
T2 construct: TFIIH was captured from HeLa nuclear extract; endogenous in cells; host or cells: HeLa nuclear extract
Experimental: (§1) Kinase Assays. Data was quantified with ImageJ and plotted and fitted with GraphPad Prism 6.0. For STAT1 transactivation domain (TAD), 750 ng of GST-STAT1 TAD (residues 639-750) was incubated with ˜50 ng recombinant CDK8 module at 30° C. for 8 min in kinase buffer (25 mM Tris pH 8, 2 mM DTT, 100 μM cold ATP, 100 mM KCl, 10 mM MgCl2 and 2.5 μCi [γ-^32P] ATP (Perkin Elmer) per reaction). […] 12% SDS-PAGE gels were subsequently silver stained, exposed for 18 h on a Phosphor Screen and imaged (Typhoon 9400, GE Life Sciences). For pol II CTD, 400 ng of GST-CTD (murine sequence) was incubated with ˜40 ng recombinant CDK8 module, 25 ng TFIIH, or 40 ng P-TEFb at 30° C. for 60 min in kinase buffer. Kinase amounts were chosen to give similar total pol II CTD signal. 9% SDS-PAGE gels were silver stained and exposed as above. In vitro FLAG-CDK8 kinase assays used ˜40 ng kinase and 500 ng GST-CTD. For STAT1 or Smad2/3, cells were treated with compound for 1 h followed by IFN-γ or TGF-β1 for 1 h, then washed twice with cold PBS, and lysed (RIPA buffer with inhibitors R0278, P8340, P0044, P5762 Sigma-Aldrich). Standard immunoblotting was then performed with one immunoblot shown. All experiments were performed twice.
Protein Purification. Buffers for purification and elution of recombinant proteins included 0.25 mM PMSF, 1 mM DTT, 1 mM benzamidine, and 1 mM sodium metabisulfite. […]

[3] = test system: MEG-01; assay: Cell growth assay, MEG-01; assay type: cell-based; details: Homo sapiens, MEG-01, 240 h; CA, after 10 days; read-out: Mean GI50 (nM), MEG-01
Experimental: (§2) Cell Culture. All media was supplemented with 100 U/mL penicillin and 100 μg/mL streptomycin. Human cancer cell lines were grown in the following media: MV4; 11, RS4; 11, K562, HEL, MOLM-14, MEG-01 in RPMI-1640, 10% FBS; SET-2 in RPMI-1640, 20% FBS; UKE-1 in RPMI-1640, 10% FBS, 10% horse serum and 1 μM hydrocortisone; SKNO-1 and TF-1 in RPMI-1640, 10% FBS, and 10 or 2 ng/mL GM-CSF, respectively; HaCaT in DMEM, 10% FBS; and HCT116 in McCoy's 5 A, 10% FBS (proliferation assay) or DMEM, 10% FBS (gene expression study). HepG2, MV4;11, RS4;11, MEG-01, TF-1, HCT116 and K562 were from ATCC. SKNO-1 was from DSMZ. HEL, UKE-1, and SET-2 were provided by Ross L. Levine and HaCaT, MV4;11-mCLP, and MOLM-14 by Van Wilson, Andrew L. Kung, and Scott A. Armstrong, respectively. MOLM-14 cells were authenticated by STR profiling and flow cytometry and all cell lines were routinely tested and found to be negative for mycoplasma.

[4] = test system: TF-1; assay: Cell growth assay, TF-1; assay type: cell-based; details: Homo sapiens, TF-1, 240 h; CA, after 10 days; read-out: Mean GI50 (nM), TF-1
Experimental: as §2

[5] = test system: STAT1 S727 phosphorylation; assay: IFN-γ-stimulated STAT1 S727 phosphorylation immunoblot; assay type: cell-based, human; details: MOLM-14 cells
Experimental: as §1

[6] = test system: K562; assay: Cell growth assay, K562; assay type: cell-based; details: Homo sapiens
Experimental: All media was supplemented with 100 U/mL penicillin and 100 μg/mL streptomycin. Human cancer cell lines were grown in the following media: MV4; 11, K562, MOLM-14 in RPMI-1640, 10% FBS; SKNO-1 in RPMI-1640, 10% FBS, and 10 ng/mL GM-CSF; MV4;11 and K562 were from ATCC. SKNO-1 was from DSMZ.
as §2

[7] = test system: STAT1 S727 phosphorylation in NK cells; assay: STAT1 pS727 inhibition in NK cells in vivo; details: C57BL/6 mice, NK cells from spleen

T1 sequence (P49336 whole entry): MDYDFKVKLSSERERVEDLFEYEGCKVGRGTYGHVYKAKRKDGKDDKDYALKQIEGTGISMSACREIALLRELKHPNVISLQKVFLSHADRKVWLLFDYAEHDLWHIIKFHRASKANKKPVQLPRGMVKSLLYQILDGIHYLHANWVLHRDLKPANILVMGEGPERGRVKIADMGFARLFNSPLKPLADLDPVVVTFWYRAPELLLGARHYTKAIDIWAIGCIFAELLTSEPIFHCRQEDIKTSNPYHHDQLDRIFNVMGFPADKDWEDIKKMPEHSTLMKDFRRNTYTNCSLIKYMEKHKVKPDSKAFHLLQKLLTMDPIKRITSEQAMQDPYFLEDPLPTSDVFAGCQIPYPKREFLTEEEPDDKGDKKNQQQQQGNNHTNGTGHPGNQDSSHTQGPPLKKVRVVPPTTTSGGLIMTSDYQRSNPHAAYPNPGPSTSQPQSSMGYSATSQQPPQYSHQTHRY
T1 sequence (P24863 whole entry partner): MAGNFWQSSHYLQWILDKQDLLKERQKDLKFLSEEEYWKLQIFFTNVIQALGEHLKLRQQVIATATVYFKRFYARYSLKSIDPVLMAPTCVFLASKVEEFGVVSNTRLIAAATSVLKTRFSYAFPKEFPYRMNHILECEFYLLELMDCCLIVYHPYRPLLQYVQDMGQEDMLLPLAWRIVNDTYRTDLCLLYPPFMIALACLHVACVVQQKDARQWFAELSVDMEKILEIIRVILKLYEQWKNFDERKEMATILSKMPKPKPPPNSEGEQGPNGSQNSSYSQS
T1 sequence (Q93074 whole entry partner): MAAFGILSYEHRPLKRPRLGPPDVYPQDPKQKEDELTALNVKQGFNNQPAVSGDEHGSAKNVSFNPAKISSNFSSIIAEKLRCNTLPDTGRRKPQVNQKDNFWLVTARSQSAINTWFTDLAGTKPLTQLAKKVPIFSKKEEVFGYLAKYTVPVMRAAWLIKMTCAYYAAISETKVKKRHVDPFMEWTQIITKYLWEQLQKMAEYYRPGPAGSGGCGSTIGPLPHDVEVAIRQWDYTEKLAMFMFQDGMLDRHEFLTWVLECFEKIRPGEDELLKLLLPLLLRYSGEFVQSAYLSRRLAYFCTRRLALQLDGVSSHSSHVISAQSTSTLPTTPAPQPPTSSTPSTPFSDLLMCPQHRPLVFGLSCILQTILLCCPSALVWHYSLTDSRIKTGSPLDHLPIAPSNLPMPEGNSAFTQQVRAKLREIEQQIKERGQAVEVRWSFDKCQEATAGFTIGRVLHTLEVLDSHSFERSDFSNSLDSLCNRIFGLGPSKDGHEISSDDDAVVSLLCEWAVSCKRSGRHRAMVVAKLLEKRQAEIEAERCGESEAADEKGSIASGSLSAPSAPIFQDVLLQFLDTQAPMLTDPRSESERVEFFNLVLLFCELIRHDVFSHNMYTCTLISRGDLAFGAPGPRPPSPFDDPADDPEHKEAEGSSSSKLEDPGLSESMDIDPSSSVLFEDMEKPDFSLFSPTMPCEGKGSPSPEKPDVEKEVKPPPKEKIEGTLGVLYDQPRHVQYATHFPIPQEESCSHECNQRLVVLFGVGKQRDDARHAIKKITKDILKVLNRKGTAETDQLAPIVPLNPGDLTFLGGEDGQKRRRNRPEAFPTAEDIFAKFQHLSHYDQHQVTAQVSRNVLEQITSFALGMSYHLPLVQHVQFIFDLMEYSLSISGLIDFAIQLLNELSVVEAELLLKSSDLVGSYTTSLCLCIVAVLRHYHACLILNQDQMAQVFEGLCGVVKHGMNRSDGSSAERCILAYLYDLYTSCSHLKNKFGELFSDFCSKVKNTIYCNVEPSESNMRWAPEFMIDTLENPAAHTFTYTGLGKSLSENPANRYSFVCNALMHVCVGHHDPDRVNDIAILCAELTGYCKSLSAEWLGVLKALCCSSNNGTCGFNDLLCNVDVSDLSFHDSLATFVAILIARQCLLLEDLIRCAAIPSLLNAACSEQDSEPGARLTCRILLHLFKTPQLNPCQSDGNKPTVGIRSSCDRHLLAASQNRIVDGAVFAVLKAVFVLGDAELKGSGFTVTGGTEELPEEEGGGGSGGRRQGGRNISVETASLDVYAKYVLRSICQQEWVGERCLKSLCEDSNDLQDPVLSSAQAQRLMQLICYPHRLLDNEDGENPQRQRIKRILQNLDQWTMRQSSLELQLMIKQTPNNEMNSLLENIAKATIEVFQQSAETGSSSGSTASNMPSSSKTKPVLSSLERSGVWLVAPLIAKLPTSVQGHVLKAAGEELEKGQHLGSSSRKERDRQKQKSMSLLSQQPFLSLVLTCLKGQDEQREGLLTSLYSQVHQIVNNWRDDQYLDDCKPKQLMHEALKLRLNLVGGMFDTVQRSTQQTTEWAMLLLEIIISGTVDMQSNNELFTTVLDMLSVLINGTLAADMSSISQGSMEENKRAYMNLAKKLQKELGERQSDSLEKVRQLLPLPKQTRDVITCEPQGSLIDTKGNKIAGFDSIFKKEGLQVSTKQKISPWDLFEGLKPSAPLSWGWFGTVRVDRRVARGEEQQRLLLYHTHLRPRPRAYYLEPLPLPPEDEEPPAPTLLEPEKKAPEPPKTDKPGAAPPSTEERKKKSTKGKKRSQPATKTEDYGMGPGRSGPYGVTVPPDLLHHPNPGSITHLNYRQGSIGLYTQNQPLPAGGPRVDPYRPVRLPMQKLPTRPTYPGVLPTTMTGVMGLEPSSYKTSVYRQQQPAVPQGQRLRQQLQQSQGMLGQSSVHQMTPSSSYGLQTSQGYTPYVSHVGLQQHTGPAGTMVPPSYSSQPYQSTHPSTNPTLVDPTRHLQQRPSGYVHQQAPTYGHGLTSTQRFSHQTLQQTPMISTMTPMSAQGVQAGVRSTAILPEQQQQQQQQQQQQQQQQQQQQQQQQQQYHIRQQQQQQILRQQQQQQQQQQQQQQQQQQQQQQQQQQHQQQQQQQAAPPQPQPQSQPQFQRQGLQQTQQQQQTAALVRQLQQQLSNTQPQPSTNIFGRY
T1 sequence (Q9UHV7 whole entry partner): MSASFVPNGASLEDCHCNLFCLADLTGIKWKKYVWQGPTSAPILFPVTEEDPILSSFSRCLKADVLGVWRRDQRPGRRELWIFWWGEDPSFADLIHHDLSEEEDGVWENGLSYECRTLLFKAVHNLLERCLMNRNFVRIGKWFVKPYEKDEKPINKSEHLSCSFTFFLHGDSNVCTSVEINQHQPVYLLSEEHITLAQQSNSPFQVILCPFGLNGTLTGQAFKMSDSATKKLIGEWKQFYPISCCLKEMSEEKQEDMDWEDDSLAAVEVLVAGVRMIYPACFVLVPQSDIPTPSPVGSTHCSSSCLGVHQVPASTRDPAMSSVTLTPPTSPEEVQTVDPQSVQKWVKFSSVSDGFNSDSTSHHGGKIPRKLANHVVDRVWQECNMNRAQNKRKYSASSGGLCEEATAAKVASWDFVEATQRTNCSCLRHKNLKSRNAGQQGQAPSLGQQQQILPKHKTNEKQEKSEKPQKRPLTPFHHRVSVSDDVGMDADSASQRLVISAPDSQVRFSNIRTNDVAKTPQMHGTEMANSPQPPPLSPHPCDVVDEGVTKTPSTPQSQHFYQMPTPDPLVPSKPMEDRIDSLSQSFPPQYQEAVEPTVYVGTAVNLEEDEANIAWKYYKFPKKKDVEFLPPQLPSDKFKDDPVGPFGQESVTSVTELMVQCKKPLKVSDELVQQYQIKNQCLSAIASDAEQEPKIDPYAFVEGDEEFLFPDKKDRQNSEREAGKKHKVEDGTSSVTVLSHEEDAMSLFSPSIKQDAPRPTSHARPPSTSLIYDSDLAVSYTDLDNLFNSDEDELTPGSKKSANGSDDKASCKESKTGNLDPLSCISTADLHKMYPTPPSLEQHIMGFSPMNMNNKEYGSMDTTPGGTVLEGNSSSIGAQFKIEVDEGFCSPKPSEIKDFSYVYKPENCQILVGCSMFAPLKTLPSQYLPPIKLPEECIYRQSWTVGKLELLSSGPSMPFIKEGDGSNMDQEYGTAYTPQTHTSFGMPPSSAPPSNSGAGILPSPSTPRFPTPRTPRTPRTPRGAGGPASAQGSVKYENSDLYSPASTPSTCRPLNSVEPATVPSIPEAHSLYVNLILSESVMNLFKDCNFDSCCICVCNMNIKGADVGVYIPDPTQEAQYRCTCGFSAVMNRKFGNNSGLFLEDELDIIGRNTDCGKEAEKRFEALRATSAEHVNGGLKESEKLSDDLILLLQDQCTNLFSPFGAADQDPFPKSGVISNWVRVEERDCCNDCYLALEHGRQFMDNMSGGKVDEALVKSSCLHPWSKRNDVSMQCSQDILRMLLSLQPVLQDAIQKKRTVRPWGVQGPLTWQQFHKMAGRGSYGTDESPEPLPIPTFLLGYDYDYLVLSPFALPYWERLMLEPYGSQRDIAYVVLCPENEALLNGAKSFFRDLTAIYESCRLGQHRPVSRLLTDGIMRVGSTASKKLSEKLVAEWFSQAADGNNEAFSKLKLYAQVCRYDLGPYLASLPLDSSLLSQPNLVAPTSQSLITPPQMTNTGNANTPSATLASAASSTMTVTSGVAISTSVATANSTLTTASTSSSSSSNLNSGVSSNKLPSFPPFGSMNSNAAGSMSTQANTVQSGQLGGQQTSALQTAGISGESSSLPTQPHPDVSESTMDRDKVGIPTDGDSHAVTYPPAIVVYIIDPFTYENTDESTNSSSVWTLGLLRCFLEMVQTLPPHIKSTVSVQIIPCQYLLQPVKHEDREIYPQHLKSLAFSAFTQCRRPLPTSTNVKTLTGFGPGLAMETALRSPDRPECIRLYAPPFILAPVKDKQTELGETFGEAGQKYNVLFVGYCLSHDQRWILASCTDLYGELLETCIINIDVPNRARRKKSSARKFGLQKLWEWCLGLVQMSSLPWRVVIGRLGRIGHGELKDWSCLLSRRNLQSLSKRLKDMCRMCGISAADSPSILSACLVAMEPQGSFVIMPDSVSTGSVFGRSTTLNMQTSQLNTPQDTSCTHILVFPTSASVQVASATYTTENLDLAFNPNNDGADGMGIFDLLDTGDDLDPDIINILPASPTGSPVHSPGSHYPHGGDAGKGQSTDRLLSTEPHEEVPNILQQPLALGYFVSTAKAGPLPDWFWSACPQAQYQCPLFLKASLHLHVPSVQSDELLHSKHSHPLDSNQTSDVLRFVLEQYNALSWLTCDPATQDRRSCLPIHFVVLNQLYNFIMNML

## CN(C)[C@H]1C[C@@]23CC[C@@]4(O2)C(=CC[C@@]2(C)[C@@H](c5ccc6ccncc6c5)CC[C@H]24)C=C3[C@@H](O)[C@@H]1O [CA, cortistatin A]
[1]
  inhibition of kinase activity of the CDK8 module: potently inhibited
[2]
  inhibition of CDK7 (TFIIH): did not inhibit
[3]
  GI50: 9 nM
[4]
  GI50: 350 nM
[5]
  inhibition of STAT1 S727 phosphorylation: dose-dependently inhibited
[6]; K562, 240 h, CA, after 10 days, read-out: Mean GI50 (nM), K562
  GI50: > 1000 nM
[6]; K562, 240 h, read-out: K562 GI50 day 10
  GI50: > 1000 nM
[6]; K562, Table 5, read-out: GI50 (nM), K562
  GI50: > 1000 nM
[7]
  STAT1 S727 phosphorylation in NK cells: dose-dependent reduction
